Test results from patent US20140303216A1, “COMPOSITIONS AND METHODS FOR INDUCING DISRUPTION OF BLOOD VASCULATURE AND FOR REDUCING ANGIOGENESIS” (BOARD OF REGENTS, THE UNIVERSITY OF TEXAS SYSTEM, priority 2011, published 2014).

Columns and labels:
Xenopus embryos = assay: Xenopus embryo morphology and developmental defects; format: in vivo
Description: Female adult Xenopus were ovulated by injections of human chorionic gonadotropin, and eggs were fertilized in vitro and dejellied in 3% cysteine (pH 7.9) and subsequently reared in 1⁄3×Marc's modified Ringer's (MMR) solution. For microinjections, embryos were placed in a solution of 2% Ficoll in 1⁄3×MMR solution, injected using forceps and an Oxford universal manipulator, reared in 2% Ficoll in 1⁄3×MMR to stage 9, then washed and reared in 1⁄3×MMR solution alone. For bilateral rab11b knock-down experiments, the posterior cardinal vein and intersomitic veins were targeted by injecting Morpholino antisense oligonucleotides (MOs) into the two ventral cells equatorially at the four-cell stage. For unilateral knockdown, only one ventral cell was injected. MOs were injected at 40 ng per blastomere. For the experiments to see the drug effects, embryos were placed in a solution of each chemical dissolved in 1% DMSO diluted in 1⁄3×MMR during indicated stages. For bead micro-surgery implantation, Affi-Gel Blue Gel beads (Bio-Rad) were soaked with 0.7 mg/ml recombinant mouse VEGF 164 aa (R&D systems) or BSA as a control. Whole-mount in situ hybridization for […] performed as described^29. Immunostaining for Xenopus was performed as previously described (Lee et al., 2008). Embryos at stage 35-36 were fixed in 1×MEMFA. 12/101 (1:500; DSHB), and primary antibodies were detected with Alexa Fluor-488 or 555 goat anti-mouse Immunoglobulin (IgG).

[1] = test system: developing Xenopus embryos; assay: Xenopus embryo angiogenesis, in situ hybridization for erg/apinr and kdr:GFP imaging; format: in vivo, Xenopus laevis
Description: Female adult Xenopus were ovulated by injections of human chorionic gonadotropin, and eggs were fertilized in vitro and dejellied in 3% cysteine (pH 7.9) and subsequently reared in ⅓×Marc's modified Ringer's (MMR) solution. For microinjections, embryos were placed in a solution of 2% Ficoll in ⅓×MMR solution, injected using forceps and an Oxford universal manipulator, reared in 2% Ficoll in ⅓×MMR to stage 9, then washed and reared in ⅓×MMR solution alone. For bilateral rab11b knock-down experiments, the posterior cardinal vein and intersomitic veins were targeted by injecting Morpholino antisense oligonucleotides (MOs) into the two ventral cells equatorially at the four-cell stage. For unilateral knockdown, only one ventral cell was injected. MOs were injected at 40 ng per blastomere. For the experiments to see the drug effects, embryos were placed in a solution of each chemical dissolved in 1% DMSO diluted in ⅓×MMR during indicated stages. For bead micro-surgery implantation, Affi-Gel Blue Gel beads (Bio-Rad) were soaked with 0.7 mg/ml recombinant mouse VEGF 164 aa (R&D systems) or BSA as a control. Whole-mount in situ hybridization for erg and apinr was performed as described^29.
To analyze action of TBZ precisely on inhibition of angiogenesis and disruption of vasculature, we tested TBZ on two different developmental stages. Xenopus late tailbud embryos at stage 31 were selected for testing the inhibitory effect of TBZ on angiogenesis (FIG. 3A-D). This embryonic stage coincides with the onset of intersomitic vein (ISV) angiogenesis, the process of forming smaller blood vessels by sprouting from pre-existing blood vessels. To observe disruption of existing vasculature, we selected stage 35/36 embryos in which the posterior cardinal vein (PCV) and ISV are already developed (FIG. 15).

HUVEC cells = assay: HUVEC apoptosis and proliferation (Caspase-3, Phospho-histone H3 immunostaining); format: cell-based, human; conditions: cultured on 0.1% gelatin
Description: FIG. 18. TBZ treatment (A) increases apoptosis and (B) decreases proliferation of HUVEC cells cultured on 0.1% gelatin, but only by approximately 2-fold. Both changes are significant under a t test (p=0.015, p=0.01, respectively). Error bars represent mean±1 s.d. across 14-16 fields of view of 200× magnification confocal microscopy cell images across 2-3 independent experiments. Scale bar, 100 μm.
Control cells received 1% DMSO.

VEGF = VEGF levels in HT1080 cells (Western blotting, ELISA); format: cell-based, human; conditions: 250 μM TBZ, 24 hours
Experimental: Cells were lysed in cell lysis buffer (Cell Signaling Technology) containing 1 mM PMSF, and analyzed by SDS-PAGE and western blotting using anti-VEGF (Santa Cruz, A-20) or anti-GAPDH (Cell Signaling Technology) antibodies. The secreted VEGF level in culture media was determined by enzyme-linked immunosorbent assay (ELISA; R&D) according to the manufacturer's instructions.

[2] = test system: human umbilical vein endothelial cells (HUVECs); assay: HUVEC tube formation, in vitro angiogenesis assay; format: cell-based
Experimental: Human umbilical vein endothelial cells (HUVECs) were purchased from Clonetics, and were used between passages 4 and 9. HUVECs were cultured on 0.1% gelatin-coated (Sigma) plates in endothelial growth medium-2 (EGM-2; Clonetics) in tissue culture flasks at 37° C. in a humidified atmosphere of 5% CO2. HUVECs (10^4 cells) were seeded in a 96-well plate coated with 50 μl of ECMatrix (Chemicon) or Matrigel (BD Bioscience) according to the manufacturer's instructions. Cells were incubated for 16 h on EGM-2 containing thiabendazole, dissolved in 1% DMSO. Negative control cells were treated with 1% DMSO in the same manner. As a positive control, siRNA versus the human HoxA9 sequence^30 was transfected into HUVECs using Lipofectamine RNAiMAX (Invitrogen) according to the manufacturer's instructions. Tube formation was observed using an inverted microscope (Nikon, eclipse TS100), and branch points were measured using ImageJ software (http://rsb.info.nih.gov/ij).

c1ccc2[nH]c(-c3cscn3)nc2c1 [TBZ, 4-(1H-1,3-benzodiazol-2-yl)-1,3-thiazole]
somitic muscle, defined with the 12/101 antibody (Xenopus embryos; 250 μM TBZ, 1% DMSO, treated at stage 31, imaged at stages 35-36, compared to 1% DMSO control): normal
overall morphology and patterning of treated Xenopus embryos (Xenopus embryos; at the stages when the vasculature was severely disrupted): grossly normal
concentration at which angiogenesis inhibition was observed ([1]; Xenopus embryos in vivo): 100 to 250 µM
angiogenesis, expression of vascular-specific genes apinr and erg ([1]; Xenopus embryos, 250 μM TBZ in 1% DMSO, treated at stage 31, imaged at stages 35-36): severely impaired angiogenesis
disruption of pre-existing vasculature ([1]; treatment at later stages (stage 36), in situ hybridization versus apinr at stage 39): overt breakdown of established vasculature
decrease of proliferation of HUVEC cells (HUVEC cells; p=0.01): approximately 2 fold
increase of apoptosis of HUVEC cells (HUVEC cells; p=0.015): approximately 2 fold
level of VEGF expressed by HT1080 cells (Western blotting) (VEGF): did not alter
level of VEGF secreted by HT1080 cells (ELISA) (VEGF): did not alter
angiogenesis (tube formation) in HUVECs ([2]; 100 and 250 μM TBZ in 1% DMSO, 16 h): inhibited angiogenesis in a dose-dependent manner
concentration at which angiogenesis inhibition was observed ([2]; human cells in vitro): 100 to 250 µM
